# Results: US20250000979A1, “TRIPLET-TRIPLET ENERGY TRANSFER WITH LIGHT EXCITATION AT LONG WAVELENGTHS AND METHODS THEREOF” (priority 2023, published 2025)
# Several values for one entry are separate records, joined by “and”; a condition that tells them apart may be missing. Equal entries are not always repeated. Marks after values point to notes of the source that are not given here.
# Experiments:
# [1] = Photolysis of BODIPY prodrugs in solution, analysed by HPLC; type: physicochemical
# Protocol: BODIPY photocage was conjugated with the free drug molecules to form photoactivable prodrugs with photolabile linkages, including ester and carbamate. The light illumination was performed with a NIR lamp, of which the parameters were 100 mW/cm^2, 690 nm for 5 min, in a N2-saturated solution containing 0.1 equiv. of Os(bptpy)2^2+ and 1 equiv. of prodrugs. […] In addition, the photocage was conjugated with drug molecules with amine groups to produce prodrugs with photolabile carbamate bonds.
# The photolysis efficiency of BODIPY prodrugs were compared in different conditions, including different excitation wavelengths (690 nm or 530 nm), different ratios of Os(bptpy)2^2+, and different oxygen contents. […] The solvent was 88% methanol mixed by 10% dichloromethane and 2% acetone. For the N2-saturated groups, after dissolving the molecules, the solution was degassed with a vacuum pump for 10 min followed by gentle N2 blowing. After light irradiation, the resulted mixtures were refilled to 100 μL with methanol to avoid the error caused by solvent evaporation. The resulted solution was loaded onto the sampler and analyzed by high-performance liquid chromatography. An elution method was used to separate free drug, BODIPY photocage and prodrug on the C18 column.
# [2] = Photoreaction quantum yields and cross sections (HPLC, Reinecke's salt actinometry); type: physicochemical
# Protocol: Quantum yields of the photoreactions (Φ) are defined as:
# The number of reacted molecules (e.g., consumption of prodrugs or generation of free drugs) were determined by HPLC. The absorbed photon number was determined by Reinecke's salt actinometry at excitation wavelengths of 530 nm and 690 nm^35, 36. The power densities were 50 mW/cm^2 (530 nm) and 100 mW/cm^2 (690 nm).
# [3] = In vivo biodistribution by IVIS fluorescence imaging; parameters: species or system BALB/c nude mice; conditions: intravenous, DiR 100 μg/kg, HeLa tumor-bearing mice
# From the text: The tumors and major organs were excised for ex vivo fluorescence imaging 24-h post injection. […] It should be noted that the prodrug can be selectively activated in tumors by NIR light while those nanoparticles in the normal tissues and organs will not be activated, which can alleviate the side effects of chemotherapy.
# BALB/c nude mice (female, 4 weeks, 15-20 g) were obtained from the Experimental Animal Center of University with access to food and water ad libitum. The animal experiment and procedures were approved by the Committee on the Use of Live Animals in Teaching & Research (CULATR), The University of Hong Kong. (Protocol No. 4381-17).
# HeLa tumor-bearing mice was obtained by subcutaneously injecting HeLa cells for tumor implantation. HeLa cancer cells were collected by cell culture and trypsin digestion. The cells were washed by PBS and resuspended in DMEM medium without serum, in which collagen and Matrigel were added. 2×10^6 cells were dispersed in 100 μL mixture, which was subcutaneously injected into the mice at underarm area. […]
# The biodistribution of free drug or nanoparticles in the HeLa tumor-bearing mice was measured by an in vivo fluorescence imaging system. […] The in vivo fluorescence imaging was performed at 1, 2, 8 and 24 h post injection and anesthesia at each time point. […]
# [4] = in toluene, calculated by TD-DFT, referred to previous studies; cited from earlier work
# [5] = Photophysical properties (UV-Vis absorption, emission, energy levels); type: physicochemical
# From the text: The absorption peak at about 492 nm is identified as the singlet metal-to-ligand charge transfer (^1MLCT) absorption, also termed as singlet-singlet (S-S) absorption. […] The two twistable bromophenyl groups of the bromophenyl terpyridine ligands extend the S-T absorption from 650 nm to 750 nm with increased absorption coefficient.
# CombiFlash Rf chromatography instrument was purchased from Teledyne ISCO (Lincoln, USA) for chemical purification. Light sources used in this study were purchased from Yuanming Laser (Ningbo, China) and Mightex (CA, USA). The purity verification and photolysis study were conducted with a high-performance liquid chromatography (HPLC) system (Agilent technologies, 1260), attached with C-18 columns which were obtained from Agilent (Santa Clara, California, United States). Nuclear magnetic resonance (NMR) spectroscopy was collected by Bruker AVANCE III HD 500 spectrometer (MA, US). Fluorescence, phosphorescence and UV-vis spectra were collected by a SpectraMax M4 microplate reader (Molecular Devices, CA, US). The particle size and surface charge were recorded by a dynamic light scattering (DLS) device, Zetasizer Nano-ZS90 (Malvern instruments, UK). Transmission electron microscope (TEM) imaging was conducted on a Hitachi HT7700 TEM (Tokyo, Japan). ACEA NovoCyte Quanteon flow cytometer (ACEA Biosciences, CA, USA) was used for flow cytometry. In vivo and ex vivo imaging of the mice were conducted with an In Vivo Imaging System (PerkinElmer, USA). Devices for animal study like including balance and vernier caliper were kindly provided by The Centre for Comparative Medicine Research (CCMR), The University of Hong Kong.
# [6] = Encapsulation efficiency and loading capacity of Os/BC NP (HPLC); type: physicochemical; conditions: component of Os/BC NP
# Protocol: Flash nanoprecipitation method was used to fabricate the photosensitizer/prodrug-loading nanoparticles. […] Different formulations (Os NPs, BC NPs and Os/BC NPs) were then prepared with optimized ratios of components. Briefly, 224 μL of the mixed stock solution was added into 1.8 mL N2-saturated water under vortexing. The resulted solutions were added to dialysis bags (MW: 3400 Da) and dialyzed against 4 L of water for 24 h. The water out of dialysis bag was renewed every 8 h. The resulted solution of NPs was collected and filtrated with 220 nm filter. Finally, the NPs solutions were concentrated by ultrafiltration (Mw=100 kDa, 2000×g, 10 min) and stored at 4° C. until use. The concentrations of each component were measured by using HPLC. Loading capacity and encapsulation efficiency were calculated as follow: […]
# [7] = red-light irradiation (625 nm), platinum photosensitizer PtTPBP; ref 17 / US2021/0228719; cited from earlier work
# [8] = 690 nm, 100 mW/cm^2, 5 min, 0.1 equiv. Os(bptpy)2^2+, N2-saturated solution
# [9] = λex 690 nm, 0.1 eq Os, N2, ε of Os(bptpy)2·2PF6 at 688 nm
compound,measurement,setting,value
"CC1=C(I)C(C)=[N+]2C1=C(COC(=O)/C=C/c1cccc(OCc3ccccc3)c1)c1c(C)c(I)c(C)n1[B-]2(C)C [BODIPY-BCA, BODIPY-benzyloxycinnamic acid]",photolytic yield (yield of free drug),[1]; [8],87.12±3.17%
same,Quantum yield of drug release Φr,"[2]; λex 690 nm, 0.1 eq Os, N2",0.75 ± 0.03%
same,Quantum yield of prodrug photolysis Φp,"[2]; λex 690 nm, 0.1 eq Os, N2",0.80 ± 0.02%
same,Cross section Φpε(λex),[2]; [9],213.33 ± 7.55 M⁻¹ cm⁻¹
same,Cross section Φrε(λex),[2]; [9],200.64 ± 7.30 M⁻¹ cm⁻¹
"CC1=C(I)C(C)=[N+]2C1=C(COC(=O)Cc1cccc3c(=O)c4ccc(C)c(C)c4oc13)c1c(C)c(I)c(C)n1[B-]2(C)C [BODIPY-DMXAA, BODIPY-vadimezan]",photolytic yield (yield of free drug),[1]; [8],82.52±7.22%
same,prodrug decomposition,[1]; [8],completely consumed
same,Quantum yield of drug release Φr,"[2]; λex 690 nm, 0.1 eq Os, N2",0.71 ± 0.06%
same,Quantum yield of prodrug photolysis Φp,"[2]; λex 690 nm, 0.1 eq Os, N2",0.87 ± 0.01%
same,Cross section Φpε(λex),[2]; [9],230.30 ± 1.43 M⁻¹ cm⁻¹
same,Cross section Φrε(λex),[2]; [9],190.05 ± 16.63 M⁻¹ cm⁻¹
"CC1=C(I)C(C)=[N+]2C1=C(COC(=O)NCCc1ccc(O)c(O)c1)c1c(C)c(I)c(C)n1[B-]2(C)C [BODIPY-DPA, BODIPY-dopamine]",photolytic yield (yield of free drug),[1]; [8],69.04±1.99%
same,Quantum yield of drug release Φr,"[2]; λex 690 nm, 0.1 eq Os, N2",0.60 ± 0.02%
same,Quantum yield of prodrug photolysis Φp,"[2]; λex 690 nm, 0.1 eq Os, N2",0.86 ± 0.01%
same,Cross section Φpε(λex),[2]; [9],228.90 ± 3.59 M⁻¹ cm⁻¹
same,Cross section Φrε(λex),[2]; [9],159.00 ± 4.58 M⁻¹ cm⁻¹
"COc1ccc(CCNC(=O)OCC2=C3C(C)=C(I)C(C)=[N+]3[B-](C)(C)n3c(C)c(I)c(C)c32)cc1OC [BODIPY-HVA, BODIPY-homoveratrylamine]",photolytic yield (yield of free drug),[1]; [8],74.17±3.97%
same,Quantum yield of drug release Φr,"[2]; λex 690 nm, 0.1 eq Os, N2",0.64 ± 0.03%
same,Quantum yield of prodrug photolysis Φp,"[2]; λex 690 nm, 0.1 eq Os, N2",0.85 ± 0.04%
same,Cross section Φpε(λex),[2]; [9],224.98 ± 9.83 M⁻¹ cm⁻¹
same,Cross section Φrε(λex),[2]; [9],170.82 ± 9.14 M⁻¹ cm⁻¹
"CC1=C(I)C(C)=[N+]2C1=C(COC(=O)C(C)c1ccc(CC(C)C)cc1)c1c(C)c(I)c(C)n1[B-]2(C)C (centres unmarked) [BODIPY-IBF, BODIPY-ibuprofen]",photolytic yield (yield of free drug),[1]; [8],48.49±4.69%
same,Quantum yield of drug release Φr,"[2]; λex 690 nm, 0.1 eq Os, N2",0.42 ± 0.04%
same,Quantum yield of prodrug photolysis Φp,"[2]; λex 690 nm, 0.1 eq Os, N2",0.85 ± 0.04%
same,Cross section Φpε(λex),[2]; [9],226.34 ± 10.96 M⁻¹ cm⁻¹
same,Cross section Φrε(λex),[2]; [9],111.67 ± 10.81 M⁻¹ cm⁻¹
"COc1ccc2c(c1)c(CC(=O)OCC1=C3C(C)=C(I)C(C)=[N+]3[B-](C)(C)n3c(C)c(I)c(C)c31)c(C)n2C(=O)c1ccc(Cl)cc1 [BODIPY-IDM, BODIPY-indomethacin]",photolytic yield (yield of free drug),[1]; [8],68.95±4.69%
same,Quantum yield of drug release Φr,"[2]; λex 690 nm, 0.1 eq Os, N2",0.60 ± 0.04%
same,Quantum yield of prodrug photolysis Φp,"[2]; λex 690 nm, 0.1 eq Os, N2",0.86 ± 0.02%
same,Cross section Φpε(λex),[2]; [9],229.15 ± 5.23 M⁻¹ cm⁻¹
same,Cross section Φrε(λex),[2]; [9],158.79 ± 10.80 M⁻¹ cm⁻¹
"CCCCN(C(=O)OCC1=C2C(C)=C(I)C(C)=[N+]2[B-](C)(C)n2c(C)c(I)c(C)c21)c1ccc(C(=O)OCCN(C)C)cc1 [BODIPY-TCI, BODIPY-tetracaine]",photolytic yield (yield of free drug),[1]; [8],41.34±4.61%
same,Quantum yield of drug release Φr,"[2]; λex 690 nm, 0.1 eq Os, N2",0.36 ± 0.04%
same,Quantum yield of prodrug photolysis Φp,"[2]; λex 690 nm, 0.1 eq Os, N2",0.81 ± 0.06%
same,Cross section Φpε(λex),[2]; [9],215.84 ± 15.71 M⁻¹ cm⁻¹
same,Cross section Φrε(λex),[2]; [9],95.21 ± 10.62 M⁻¹ cm⁻¹
"CC1=C(I)C(C)=[N+]2C1=C(COC(=O)NCCc1ccc(O)cc1)c1c(C)c(I)c(C)n1[B-]2(C)C [BODIPY-TyrA, BODIPY-tyramine]",photolytic yield (yield of free drug),[1]; [8],46.57±2.37%
same,Quantum yield of drug release Φr,"[2]; λex 690 nm, 0.1 eq Os, N2",0.40 ± 0.02%
same,Quantum yield of prodrug photolysis Φp,"[2]; λex 690 nm, 0.1 eq Os, N2",0.84 ± 0.02%
same,Cross section Φpε(λex),[2]; [9],223.12 ± 6.28 M⁻¹ cm⁻¹
same,Cross section Φrε(λex),[2]; [9],107.25 ± 5.46 M⁻¹ cm⁻¹
"CCCCCCCCCCCCCCCCCCN1C(=CC=CC=CC=CC2=[N+](CCCCCCCCCCCCCCCCCC)c3ccccc3C2(C)C)C(C)(C)c2ccccc21.[I-] [DiR, 1,1′-dioctadecyl-3,3,3′,3′-tetramethylindotricarbocyanine iodide]",time within which the free dye was completely metabolized,[3],≤ 8 h
BODIPY-chlorambucil [BODIPY-Cb],photocleavage in air-saturated solution,"[1]; 530 nm green light, air-saturated",retarded
same,photolytic yield (yield of free drug),[1]; [8],84.17±4.21%
same,decomposition of prodrug and generation of free Cb in air-saturated solution,"[1]; 690 nm, with Os(bptpy)2^2+, air-saturated",mostly retarded
same,Energy level S1 state,[4],2.18 eV and 2.18^f eV
same,Energy level T1 state,[4],1.52 eV and 1.52^g eV
same,T1 lifetime,[4],21.82^e μs
same,"E (absorption coefficient at λabs, max)",[5]; at 543 nm,89400 M⁻¹ cm⁻¹
same,"λabs, max","[5]; dichloromethane solution with 2% acetone, 10 μM",543 nm
same,"λem, max",[5]; λex = 543 nm,570^b nm
same,Loading Capacity,[6],0.27%
same,"max. yield of free Cb, one-photon upconversion-like photolysis",[7],41.74%
same,Cross section Φpε(λex),"[2]; λex 530 nm, Air",2292.95 ± 730.79 M⁻¹ cm⁻¹
same,Cross section Φrε(λex),"[2]; λex 530 nm, Air",171.63 ± 24.81 M⁻¹ cm⁻¹
same,Quantum yield of prodrug photolysis Φp,"[2]; λex 530 nm, Air",3.42 ± 1.09%
same,Cross section Φpε(λex),"[2]; λex 530 nm, N2",16017.11 ± 2044.88 M⁻¹ cm⁻¹
same,Cross section Φrε(λex),"[2]; λex 530 nm, N2",6016.62 ± 1895.28 M⁻¹ cm⁻¹
same,Quantum yield of drug release Φr,"[2]; λex 530 nm, N2",6.73 ± 2.12%
same,Quantum yield of prodrug photolysis Φp,"[2]; λex 530 nm, N2",23.89 ± 3.05%
same,Cross section Φpε(λex),"[2]; λex 690 nm, 0.1 eq Os, Air",1.87 ± 1.11 M⁻¹ cm⁻¹
same,Cross section Φrε(λex),"[2]; λex 690 nm, 0.1 eq Os, Air",0.49 ± 0.11 M⁻¹ cm⁻¹
same,Quantum yield of drug release Φr,"[2]; λex 690 nm, 0.1 eq Os, N2",0.73 ± 0.04%
same,Quantum yield of prodrug photolysis Φp,"[2]; λex 690 nm, 0.1 eq Os, N2",0.84 ± 0.01%
same,Cross section Φpε(λex),[2]; [9],222.80 ± 2.90 M⁻¹ cm⁻¹
